The test system of the assay is KRAS G12D mutated AGS human gastric adenocarcinoma cells. In words: Proliferation inhibition of KRAS G12D mutant AGS cells, another experiment with similar protocol (includes MRTX1133). In kind it is cell-based. On the procedure:
In another experiment, using a protocol similar to the one described above, the inhibitory activity of some representative compounds of the present invention against KRAS G12D mutated AGS human gastric adenocarcinoma cells was determined.
The synthesis of compound MRTX1133 was performed according to the method described in J. Med. Chem. 2022, 65, 4, 3123-3133.

Structures are written as SMILES. Read-outs that look alike come from different tables or passages of the source.

Consider 24 molecules from US20260176284A1, “Compounds with Anti-KRAS Mutated Tumor Activity” (Trasveda Ltd., priority 2022, published 2026).

Turning to `C#Cc1c(F)ccc2cc(O)cc(-c3ncc4c(N5CC6CCC(C5)N6)nc(OC[C@]5(C)CN(C)CC[C@@H]5F)nc4c3F)c12` [Example 67-1], the IC50 (commonly the concentration that inhibits the measured activity by half) (Homo sapiens) stood at 77 nM.

For `C#Cc1c(F)ccc2cc(O)cc(-c3c(F)cc4c(N5CC6CCC(C5)N6)nc(OC[C@]5(C)CN(CC)CC[C@H]5F)nc4c3F)c12` (atropisomer, axis not shown; (Ra)) [Example 50-3, (Ra)-4-(4-((1R,5S)-3,8-diazabicyclo[3.2.1]octan-3-yl)-2-(((35,4R)-1-ethyl-4-fluoro-3-methylpiperi-din-3-yl)methoxy)-6,8-difluoroquinazolin-7-yl)-5-ethynyl-6-fluoronaph-thalen-2-ol], for the setting “Homo sapiens”, the IC50 turned out to be 7 nM.

Under “Homo sapiens”, `Cc1cc(N)c(C#N)c(-c2c(F)cc3c(N4C[C@H]5CC[C@@H](C4)N5)nc(OC[C@]4(C)CN(C)CC[C@@H]4CF)nc3c2F)c1C(F)(F)F` (single isomer, unassigned) [Example 85-2] registered an IC50 of 38 nM.

As to `C#Cc1c(F)ccc2cc(O)cc(-c3c(F)cc4c(N5C[C@H]6CC[C@@H](C5)N6)nc(OC[C@]5(C)CN(C)CCC56CC6)nc4c3F)c12` [Example 88, 4-(4-((1R,5S)-3,8-diazabicyclo[3.2.1]octan-3-yl)-2-(((S)-4,6-dimethyl-6-azaspiro[2.5]octan-4-yl)methoxy)-6,8-difluoroquinazolin-7-yl)-5-ethynyl-6-fluoronaphthalen-2-ol], for the setting “Homo sapiens”, the IC50 came to 17 nM.

Take `C#Cc1c(F)ccc2cc(O)cc(-c3nc(OC)c4c(N5C[C@H]6CC[C@@H](C5)N6)nc(OC[C@]5(C)CN(C)CC[C@H]5F)nc4c3F)c12` [Example 263, 4-(4-((1R,5S)-3,8-diazabicyclo[3.2.1]octan-3-yl)-8-fluoro-2-(((3S,4R)-4-fluoro-1,3-dimethylpiperidin-3-yl)methoxy)-5-methoxypyrido[4,3-d]pyrimidin-7-yl)-5-ethynyl-6-fluoronaphthalen-2-ol]: for the setting “Homo sapiens”, the IC50 was 12 nM.

Take `C#Cc1c(F)ccc2cc(O)cc(-c3ncc4c(N5CC6CCC(C5)N6)nc(OC[C@]5(C)CN(C)CC[C@@H]5CF)nc4c3F)c12` [Example 71-2]: the concentration for half-maximal inhibition (IC50) (Homo sapiens) turned out to be 8 nM.

The molecule `C#Cc1c(F)ccc2cc(O)cc(-c3c(F)cc4c(N5CC6CCC(C5)N6)nc(OC[C@]5(C)CN(C6CC6)CCC5(F)F)nc4c3F)c12` (atropisomer, axis not shown; (Ra)) [Example 49, (Ra)-4-(4-((1R,5S)-3,8-diazabicyclo[3.2.1]octan-3-yl)-2-(((S)-1-cycloprop-yl-4,4-difluoro-3-methylpiperi-din-3-yl)methoxy)-6,8-difluoroquinazolin-7-yl)-5-ethynyl-6-fluoronaph-thalen-2-ol] showed an IC50 (Homo sapiens) of 386 nM. This IC50 is about 48-fold higher than that of the molecule before.

On to `CN1CC[C@H](C(F)F)[C@](C)(COc2nc(N3C[C@H]4CC[C@@H](C3)N4)c3cc(F)c(-c4cccc5sc(N)c(C#N)c45)c(F)c3n2)C1` [Example 190, 4-(4-((1R,5S)-3,8-diazabicyclo[3.2.1]octan-3-yl)-2-(((3S,4S)-4-(difluoromethyl)-1,3-dimethylpiperidin-3-yl)methoxy)-6,8-difluoroquinazolin-7-yl)-2-aminobenzo[b]thiophene-3-nitrile], for which half-maximal inhibition (Homo sapiens) (IC50) required 47 nM.

The molecule `C#Cc1c(F)ccc2cc(O)cc(-c3c(F)cc4c(N5C[C@H]6CC[C@@H](C5)N6)nc(OC[C@]5(C)CN(CC)CCC56CC6)nc4c3F)c12` [Example 95, 4-(4-((1R,5S)-3,8-diazabicyclo[3.2.1]octan-3-yl)-2-(((S)-6-ethyl-4-methyl-6-azaspiro[2.5]octan-4-yl)methoxy)-6,8-difluoroquinazolin-7-yl)-5-ethynyl-6-fluoronaphthalen-2-ol] displayed an IC50 (Homo sapiens) of 8 nM.

In turn, `C#Cc1c(F)ccc2cc(O)cc(-c3c(F)cc4c(N5CC6CCC(C5)N6)nc(OC[C@]5(C)CN(CC)CC[C@@H]5C)nc4c3F)c12` (atropisomer, axis not shown; (Ra)) [Example 52-1, (Ra)-4-(4-((1R,5S)-3,8-diazabicyclo[3.2.1]octan-3-yl)-2-(((35,4S)-1-ethyl-3,4-dimethyl-piperidin-3-yl)methoxy)-6,8-difluoroquinazolin-7-yl)-5-ethynyl-6-fluoro-naphthalen-2-ol] returned an IC50 (Homo sapiens) of 10 nM. This IC50 and that of the molecule before are within 1.5-fold of each other.

For the setting “Homo sapiens”, `C#Cc1c(F)ccc2cc(O)cc(-c3nc(OC)c4c(N5C[C@H]6CC[C@@H](C5)N6)nc(OC[C@]5(C)CN(C)CC[C@@H]5CF)nc4c3F)c12` [Example 260, 4-(4-((1R,5S)-3,8-diazabicyclo[3.2.1]octan-3-yl)-8-fluoro-2-(((3S,4S)-4-(fluoromethyl)-1,3-dimethylpiperidin-3-yl)methoxy)-5-methoxypyrido[4,3-d]pyrimidin-7-yl)-5-ethynyl-6-fluoronaphthalen-2-ol] displayed an IC50 of 3 nM. This IC50 lies about 3.3-fold lower than the previous one.

In turn, `CN1CC/C(=C\F)[C@](C)(COc2nc(N3C[C@H]4CC[C@@H](C3)N4)c3cc(C(F)(F)F)c(-c4cccc5sc(N)c(C#N)c45)c(F)c3n2)C1` [Example 318, 4-(4-((1R,5S)-3,8-diazabicyclo[3.2.1]octan-3-yl)-8-fluoro-2-(((S,E)-4-(fluoromethylene)-1,3-dimethylpiperidin-3-yl)methoxy)-6-(trifluoromethyl)quinazolin-7-yl)-2-aminobenzo[b]thiophene-3-carbonitrile] yielded an IC50 (Homo sapiens) of 28 nM.

As to `CN1CC[C@H](C(F)F)[C@](C)(COc2nc(N3C[C@H]4CC[C@@H](C3)N4)c3cc(C#N)c(-c4cccc5sc(N)c(C#N)c45)c(F)c3n2)C1` [Example 328, 7-(2-amino-3-cyanobenzo[b]thiophen-4-yl)-4-((1R,5S)-3,8-diazabicyclo[3.2.1]octan-3-yl)-2-(((3S,4S)-4-(difluoromethyl)-1,3-dimethylpiperidin-3-yl)methoxy)-8-fluoroquinazoline-6-carbonitrile], for the setting “Homo sapiens”, the IC50 was 45 nM.

Take `CN1CC/C(=C\F)[C@](C)(COc2nc(N3C[C@H]4CC[C@@H](C3)N4)c3cc(C(F)(F)F)c(-c4c(F)ccc5sc(N)c(C#N)c45)c(F)c3n2)C1` (single isomer, unassigned) [Example 362-1]: the IC50 (Homo sapiens) was determined as 5 nM.

With `C#Cc1c(F)ccc2cc(O)cc(-c3nc(OC)c4c(N5C[C@H]6CC[C@@H](C5)N6)nc(OC[C@]5(C)CN(C)CCC5=C)nc4c3F)c12` [Example 258, 4-(4-((1R,5S)-3,8-diazabicyclo[3.2.1]octan-3-yl)-2-(((S)-1,3-dimethyl-4-methylenepiperidin-3-yl)methoxy)-8-fluoro-5-methoxypyrido[4,3-d]pyrimidin-7-yl)-5-ethynyl-6-fluoronaphthalen-2-ol], the IC50 (Homo sapiens) is 8 nM.

`C#Cc1c(F)ccc2cc(O)cc(-c3c(F)cc4c(N5C[C@H]6CC[C@@H](C5)N6)nc(OC[C@]5(C)CN(CC)CC/C5=C\F)nc4c3F)c12` [Example 79, 4-(4-((1R,5S)-3,8-diazabicyclo[3.2.1]octan-3-yl)-2-(((S,E)-1-ethyl-4-(fluoromethylene)-3-methylpiperidin-3-yl)methoxy)-6,8-difluoroquinazoline-7-yl)-5-ethynyl-6-fluoronaphthalene-2-ol] yielded an IC50 (Homo sapiens) of 4 nM.

The molecule `CN1CCC(F)(F)[C@](C)(COc2nc(N3CC4CCC(C3)N4)c3cc(F)c(-c4cc(O)cc(Cl)c4C4CC4)c(F)c3n2)C1` [Example 29-1A, 3-(4-((1R,5S)-3,8-diazabicyclo[3.2.1]octane-3-yl)-2-(((S)-4,4-difluoro-1,3-dimethylpiperidin-3-yl)methoxy)-6,8-difluoroquinolin-7-yl)-5-chloro-4-cyclopropylphenol·diformate] yielded an IC50 (Homo sapiens) of 630 nM.

`C#Cc1c(F)ccc2cc(O)cc(-c3ncc4c(N5CC6CCC(C5)N6)nc(OC[C@]5(C)CN(C)CC[C@H]5F)nc4c3F)c12` [Example 67-3] came in with an IC50 (Homo sapiens) of 17 nM. Compared with the last molecule, the IC50 is about 37-fold lower.

With `CN1CC/C(=C\F)[C@](C)(COc2nc(N3CC4CCC(C3)N4)c3cc(F)c(-c4cccc5sc(N)c(C#N)c45)c(F)c3n2)C1` [Example 194], the IC50 (Homo sapiens) worked out at 97 nM.

As for `CN1CC[C@H](C(F)F)[C@](C)(COc2nc(N3C[C@H]4CC[C@@H](C3)N4)c3cc(Cl)c(-c4cccc5sc(N)c(C#N)c45)c(F)c3n2)C1` [Example 312, 4-(4-((1R,5S)-3,8-diazabicyclo[3.2.1]octan-3-yl)-6-chloro-2-(((3S,4S)-4-(difluoromethyl)-1,3-dimethylpiperidin-3-yl)methoxy)-8-fluoroquinazolin-7-yl)-2-aminobenzo[b]thiophen-3-nitrile], the IC50 (Homo sapiens) was found to be 25 nM.

`C#Cc1c(F)ccc2cc(O)cc(-c3c(F)cc4c(N5CC6CCC(C5)N6)nc(OC[C@]5(C)CN(C)CC[C@@H]5CF)nc4c3F)c12` (atropisomer, axis not shown; (Ra)) [Example 45-3] displayed an IC50 (Homo sapiens) of 5 nM.

`CN1CC[C@H](CF)[C@](C)(COc2nc(N3CC4CCC(C3)N4)c3cc(F)c(-c4c(C#N)c(N)cc(Cl)c4C(F)(F)F)c(F)c3n2)C1` (single isomer, unassigned) [Example 122-1, (Ra or Sa)-2-(4-((1R,5S)-3,8-diazabicyclo[3.2.1]octan-3-yl)-6,8-difluoro-2-(((3S,4S)-4-(fluoromethyl)-1,3-dimethylpiperidin-3-yl)methoxy)quinazolin-7-yl)-6-amino-4-chloro-3-(trifluoromethyl) benzonitrile·trifluoroacetate]: half-maximal inhibition (Homo sapiens) (IC50) required 34 nM. Against the preceding molecule, the IC50 is about 6.8-fold higher.

For `CN1CC[C@H](C(F)F)[C@](C)(COc2nc(N3C[C@H]4CC[C@@H](C3)N4)c3cc(Cl)c(-c4cccc5sc(N)c(C#N)c45)c(F)c3n2)C1` [Example 312-1, (4-((1R,5S)-3,8-diazabicyclo[3.2.1]octan-3-yl)-6-chloro-2-(((3S,4S)-4-(difluoromethyl)-1,3-dimethylpiperidin-3-yl)methoxy)-8-fluoroquinazolin-7-yl)-2-aminobenzo[b]thiophene-3-carbonitrile], the IC50 amounted to 11 nM.

`C#Cc1c(F)ccc2cc(O)cc(-c3c(F)cc4c(N5CC6CCC(C5)N6)nc(OC[C@]5(C)CN(CC)CCC5=C)nc4c3F)c12` (atropisomer, axis not shown; (Ra)) [Example 63, (Ra)-4-(4-((1R,5S)-3,8-diazabicyclo[3.2.1]octan-3-yl)-2-(((S)-1-ethyl-3-methyl-4-methylenepiperi-din-3-yl)methoxy)-6,8-difluoroquinazolin-7-yl)-5-ethynyl-6-fluoronaph-thalen-2-ol] gave an IC50 (Homo sapiens) of 11 nM.
